In US5977063A, “Alkylated hexapeptides” (Eli Lilly and Company, priority 1998, dated 1999):

Assays:
Assay type in all cases: cell-based
[1] = test system: Staphylococcus haemolyticus 105; test: MIC, standard broth micro-dilution assay, SH 105; parameters: unit not given here
Method: (§1) The antibacterial efficacy of the present compounds is illustrated by Table II. The minimal inhibitory concentrations (MICs) were determined using a standard broth micro-dilution assay.

[2] = test system: Staphylococcus aureus 446; test: MIC, standard broth micro-dilution assay, SA 446; parameters: unit not given here
Method: as §1

[3] = test system: Staphylococcus haemolyticus 415; test: MIC, standard broth micro-dilution assay, SH 415; parameters: unit not given here
Method: as §1

[4] = test system: Streptococcus pyogenes C203; test: MIC, standard broth micro-dilution assay, SPY C203; parameters: unit not given here
Method: as §1

[5] = test system: Streptococcus pneumoniae P1; test: MIC, standard broth micro-dilution assay, SPN P1; parameters: unit not given here
Method: as §1

[6] = test system: Enterococcus faecium and faecalis (RESISTANT); conditions: geometric mean of 4-6 isolates
Method: as §1

[7] = test system: Staphylococcus epidermidis 270; test: MIC, standard broth micro-dilution assay, SE 270; parameters: unit not given here
Method: as §1

[8] = test system: Staphylococcus aureus 489; test: MIC, standard broth micro-dilution assay, SA 489; parameters: unit not given here
Method: as §1

[9] = test system: Enterococcus faecium and faecalis (SENSITIVE); test: MIC, standard broth micro-dilution assay, SENSITIVE enterococci; parameters: unit not given here; conditions: geometric mean of 4-6 isolates
Method: as §1

[10] = test system: Staphylococcus aureus 447; test: MIC, standard broth micro-dilution assay, SA 447; parameters: unit not given here
Method: as §1

SMILES	Minimal Inhibitory Concentration (MIC) SH 105 [1]	Minimal Inhibitory Concentration (MIC) SA 446 [2]	Minimal Inhibitory Concentration (MIC) SH 415 [3]	Minimal Inhibitory Concentration (MIC) SPY C203 [4]	Minimal Inhibitory Concentration (MIC) SPN P1 [5]	Minimal Inhibitory Concentration (MIC) RESISTANT [6]	Minimal Inhibitory Concentration (MIC) SE 270 [7]	Minimal Inhibitory Concentration (MIC) SA 489 [8]	Minimal Inhibitory Concentration (MIC) SENSITIVE [9]	Minimal Inhibitory Concentration (MIC) SA 447 [10]
CCCCCCN[C@H]1C(=O)N[C@@H](CC(N)=O)C(=O)N[C@H]2C(=O)N[C@H]3C(=O)N[C@H](C(=O)N[C@H](C(=O)O)c4cc(O)cc(O)c4-c4cc3ccc4O)[C@H](O[C@H]3C[C@](C)(NCCCCCC)[C@@H](O)[C@H](C)O3)c3ccc(c(Cl)c3)Oc3cc2cc(c3O[C@@H]2O[C@H](CO)[C@@H](O)[C@H](O)[C@H]2O[C@H]2C[C@](C)(NCCCCCC)[C@@H](O)[C@H](C)O2)Oc2ccc(cc2Cl)[C@H]1O [Example 8, N^1,N^DISACC,N^MONOSACC -TRI-n-HEXYLDESLEUCYL-A82846B]	4	16	16	1	2	76	8	8	55	8
C[C@@H]1O[C@@H](O[C@@H]2c3ccc(c(Cl)c3)Oc3cc4cc(c3O[C@@H]3O[C@H](CO)[C@@H](O)[C@H](O)[C@H]3O[C@H]3C[C@](C)(NCc5ccc(-c6ccccc6)cc5)[C@@H](O)[C@H](C)O3)Oc3ccc(cc3Cl)[C@@H](O)[C@@H](NCc3ccccc3)C(=O)N[C@@H](CC(N)=O)C(=O)N[C@H]4C(=O)N[C@H]3C(=O)N[C@@H]2C(=O)N[C@H](C(=O)O)c2cc(O)cc(O)c2-c2cc3ccc2O)C[C@](C)(N)[C@H]1O [Example 5, N^1 -BENZYL-N^DISACC -(p-PHENYLBENZYL)-DESLEUCYL-A82846B]	2	2	2	0.125	0.5	23	2	2	9.2	2
CSc1ccc(CN[C@H]2C(=O)N[C@@H](CC(N)=O)C(=O)N[C@H]3C(=O)N[C@H]4C(=O)N[C@H](C(=O)N[C@H](C(=O)O)c5cc(O)cc(O)c5-c5cc4ccc5O)[C@H](O[C@H]4C[C@](C)(N)[C@@H](O)[C@H](C)O4)c4ccc(c(Cl)c4)Oc4cc3cc(c4O[C@@H]3O[C@H](CO)[C@@H](O)[C@H](O)[C@H]3O[C@H]3C[C@](C)(NCc4ccc(SC)cc4)[C@@H](O)[C@H](C)O3)Oc3ccc(cc3Cl)[C@H]2O)cc1 [Example 25, N^1,N^DISACC -BIS(p-(METHYLTHIO)-BENZYL)DESLEUCYL-A82846B]	4	8	8	4	1	6.7	8	4	2.6	4
